In US3978211A, “Lipiarmycin and its preparation” (Gruppo Lepetit S.p.A., priority 1973, dated 1976):
Values after ≈ are worked out from the molar mass of the structure shown. Residues, ends and D or L forms follow the SMILES beside them.

Legend:
[1] = system: Staphylococcus aureus ATCC 6538 resistant to novobiocin; assay: Minimum inhibitory concentration, resistant strain (Table II); type: cell-based
Description: (§1) Lipiarmycin is also active against strains which are resistant to other antibiotics which are widely used in chemotherapeutic practice. As a representative example, in the following table the minimum inhibitory concentrations (M.I.C.), γ/ml., of lipiarmycin against Staphylococcus aureus strains resistant to several antibiotics are reported.

[2] = system: Staphylococcus aureus ATCC 6538 resistant to cephaloridine; assay: as above; type: cell-based
Description: as §1

[3] = system: Staphylococcus aureus ATCC 6538 resistant to erythromycin; assay: as above; type: cell-based
Description: as §1

[4] = system: Staphylococcus aureus ATCC 6538 resistant to oleandomycin; assay: as above; type: cell-based
Description: as §1

[5] = system: Staphylococcus aureus ATCC 6538 resistant to bacitracin; assay: as above; type: cell-based; conditions: S. aureus ATCC 6538 resistant to bacitracin
Description: as §1

[6] = system: Staphylococcus aureus ATCC 6538 resistant to tetracycline; assay: as above; type: cell-based
Description: as §1

[7] = system: Staphylococcus aureus ATCC 6538 resistant to streptothricin; assay: as above; type: cell-based; conditions: S. aureus ATCC 6538 resistant to streptothricin
Description: as §1

[8] = system: Diplococcus pneumoniae UC 41; assay: Minimal inhibitory concentration; type: cell-based
Description: (§2) The antibiotic substance of the invention is active against bacteria, and in particular against the following microorganisms at the indicated concentrations.

[9] = system: Mycobacterium tub. H37Rv ATCC 9360; assay: Minimal inhibitory concentration; type: cell-based
Description: as §2

[10] = system: Mycoplasma gallisepticum H 21 C.Z.B.; assay: Minimal inhibitory concentration; type: cell-based
Description: as §2

[11] = system: Staphylococcus aureus ATCC 6538; assay: Minimal inhibitory concentration; type: cell-based
Description: as §2

[12] = system: Staphylococcus aureus Tour; assay: Minimal inhibitory concentration; type: cell-based
Description: as §2

[13] = system: Streptococcus hemolyticus C203; assay: Minimal inhibitory concentration; type: cell-based
Description: as §2

[14] = system: Streptococcus mutans ATCC 25175; assay: Minimal inhibitory concentration; type: cell-based
Description: as §2

[15] = system: Staphylococcus aureus ATCC 6538 resistant to chloramphenicol; assay: Minimum inhibitory concentration, resistant strain (Table II); type: cell-based
Description: as §1

[16] = system: Staphylococcus aureus ATCC 6538 resistant to neomycin; assay: as above; type: cell-based; conditions: S. aureus ATCC 6538 resistant to neomycin
Description: as §1

[17] = system: Staphylococcus aureus ATCC 6538 resistant to penicillin; assay: as above; type: cell-based
Description: as §1

[18] = system: Staphylococcus aureus ATCC 6538 resistant to streptomycin; assay: as above; type: cell-based
Description: as §1

[19] = type: physicochemical; conditions: methyl cellosolve
Description: An ionizable function is spectrophotometrically evidenced with pKa (in methyl cellosolve): 6.8

[20] = pH 7
[21] = system: mice; assay: Toxicity, LD50 i.p. in mice
[22] = Staphylococcus aureus, ATCC6538, read-out: M.I.C. of other antibiotics

Question: With `CO[C@@H]1[C@@H](OC(N)=O)[C@@H](O)[C@H](Oc2ccc3c(O)c(NC(=O)c4ccc(O)c(CC=C(C)C)c4)c(=O)oc3c2C)OC1(C)C` [novobiocin, reference compound] as the compound, how does the MIC [1, 22] read?
Answer: > 100 µg/mL

Question: With `O=C(Cc1cccs1)N[C@@H]1C(=O)N2C(C(=O)[O-])=C(C[n+]3ccccc3)CS[C@H]12` [cephaloridine, reference compound] as the compound, how does the MIC [2, 22] read?
Answer: > 100 µg/mL

Question: For `CC[C@H]1OC(=O)[C@H](C)[C@@H](O[C@H]2C[C@@](C)(OC)[C@@H](O)[C@H](C)O2)[C@H](C)[C@@H](O[C@@H]2O[C@H](C)C[C@H](N(C)C)[C@H]2O)[C@](C)(O)C[C@@H](C)C(=O)[C@H](C)[C@@H](O)[C@]1(C)O` [erythromycin, reference compound], which MIC [3, 22] is on record?
Answer: > 100 µg/mL

Question: With `CO[C@H]1C[C@H](O[C@H]2[C@H](C)[C@@H](O[C@@H]3O[C@H](C)C[C@H](N(C)C)[C@H]3O)[C@@H](C)C[C@@]3(CO3)C(=O)[C@H](C)[C@@H](O)[C@@H](C)[C@@H](C)OC(=O)[C@@H]2C)O[C@@H](C)[C@@H]1O` [oleandomycin, reference compound] as the compound, how does the MIC [4, 22] read?
Answer: 50 µg/mL (≈ 72.7 µM)

Question: Which “M.I.C. of other antibiotics” value [5] does the source give for `CC[C@H](C)[C@H](N)C1=N[C@H](C(=O)N[C@@H](CC(C)C)C(=O)N[C@H](CCC(=O)O)C(=O)N[C@H](C(=O)N[C@H]2CCCCNC(=O)[C@H](CC(N)=O)NC(=O)[C@@H](CC(=O)O)NC(=O)[C@H](Cc3cnc[nH]3)NC(=O)[C@@H](Cc3ccccc3)NC(=O)[C@H]([C@@H](C)CC)NC(=O)[C@@H](CCCN)NC2=O)[C@@H](C)CC)CS1` [bacitracin, reference compound] (HELM PEPTIDE1{[CC[C@H](C)[C@H](N)C1=N[C@H](C(=O)[*:2])CS1].L.[dE].I.K.[NCCC[C@@H](N[*:1])C(=O)[*:2]].I.[dF].H.[dD].N}$PEPTIDE1,PEPTIDE1,5:R3-11:R2$$$V2.0) here?
Answer: > 100 µg/mL

Question: For `CN(C)[C@@H]1C(O)=C(C(N)=O)C(=O)[C@@]2(O)C(O)=C3C(=O)c4c(O)cccc4[C@@](C)(O)[C@H]3C[C@@H]12` [tetracycline, reference compound], which MIC [6, 22] is on record?
Answer: > 100 µg/mL

Question: With streptothricin [reference compound] as the compound, how does the “M.I.C. of other antibiotics” value [7] read?
Answer: > 100 µg/mL

Question: For lipiarmycin, which “MINIMAL INHIBITORY CONCENTRATION” value [8] is on record?
Answer: 50 µg/mL

Question: And the “MINIMAL INHIBITORY CONCENTRATION” value [9]?
Answer: 50 µg/mL

Question: What about the “MINIMAL INHIBITORY CONCENTRATION” value [10] of the same compound?
Answer: 50 µg/mL

Question: What about the “MINIMAL INHIBITORY CONCENTRATION” value [11] of the same compound?
Answer: 2 µg/mL

Question: And the “MINIMAL INHIBITORY CONCENTRATION” value ([12]; Staphylococcus aureus Tour with 10 percent bovine serum)?
Answer: 10 µg/mL

Question: And the “MINIMAL INHIBITORY CONCENTRATION” value ([12]; Staphylococcus aureus Tour, without serum)?
Answer: 2 µg/mL

Question: And the “MINIMAL INHIBITORY CONCENTRATION” value [13]?
Answer: 10 µg/mL

Question: And the “MINIMAL INHIBITORY CONCENTRATION” value [14]?
Answer: 0.5 µg/mL

Question: What about the M.I.C. of lipiarmycin [5] of the same compound?
Answer: 5 µg/mL

Question: What about the M.I.C. of lipiarmycin ([2]; S. aureus ATCC 6538 resistant to cephaloridine) of the same compound?
Answer: 5 µg/mL

Question: What about the M.I.C. of lipiarmycin ([15]; S. aureus ATCC 6538 resistant to chloramphenicol) of the same compound?
Answer: 2 µg/mL

Question: What about the M.I.C. of lipiarmycin ([3]; S. aureus ATCC 6538 resistant to erythromycin) of the same compound?
Answer: 5 µg/mL

Question: What about the M.I.C. of lipiarmycin [16] of the same compound?
Answer: 2 µg/mL

Question: What about the M.I.C. of lipiarmycin ([1]; S. aureus ATCC 6538 resistant to novobiocin) of the same compound?
Answer: 2 µg/mL

Question: What about the M.I.C. of lipiarmycin ([4]; S. aureus ATCC 6538 resistant to oleandomycin) of the same compound?
Answer: 5 µg/mL

Question: What about the M.I.C. of lipiarmycin ([17]; S. aureus ATCC 6538 resistant to penicillin) of the same compound?
Answer: 2 µg/mL

Question: What about the M.I.C. of lipiarmycin ([18]; S. aureus ATCC 6538 resistant to streptomycin) of the same compound?
Answer: 5 µg/mL

Question: And the M.I.C. of lipiarmycin [7]?
Answer: 5 µg/mL

Question: What about the M.I.C. of lipiarmycin ([6]; S. aureus ATCC 6538 resistant to tetracycline) of the same compound?
Answer: 5 µg/mL

Question: What about the pKa [19] of the same compound?
Answer: 6.8

Question: What about the Solubility [20] of the same compound?
Answer: Sparingly soluble to insoluble

Question: And the LD50 [21]?
Answer: about 500 mg./kg.

Question: With `O=C(N[C@H](CO)[C@H](O)c1ccc([N+](=O)[O-])cc1)C(Cl)Cl` [chloramphenicol, reference compound] as the compound, how does the MIC [15, 22] read?
Answer: > 100 µg/mL

Question: For `CC1(C)S[C@@H]2[C@H](NC(=O)Cc3ccccc3)C(=O)N2[C@H]1C(=O)O` [penicillin, reference compound], which MIC [17, 22] is on record?
Answer: > 100 µg/mL

Question: Which “M.I.C. of other antibiotics” value [16] does the source give for neomycin [reference compound] here?
Answer: > 100 µg/mL

Question: For `[H]/N=C(/N)N[C@H]1[C@H](O)[C@@H](O)[C@H](O[C@@H]2O[C@@H](C)[C@](O)(C=O)[C@H]2O[C@@H]2O[C@@H](CO)[C@H](O)[C@@H](O)[C@@H]2NC)[C@@H](N/C(N)=N\[H])[C@@H]1O` [streptomycin, reference compound], which MIC [18, 22] is on record?
Answer: > 100 µg/mL
